Measured values published in patent US20190185518A9, “WARHEAD-CONTAINING PEPTIDOMIMETIC MACROCYCLES AS MODULATORS OF BFL-1” (AILERON Therapeutics, Inc., priority 2017, published 2019).
Positions of bridges follow the written chain, without caps; N, C: chain ends. Non-standard residues stand in square brackets, D forms with d. Residues, ends and D or L forms follow the SMILES beside them. Phe(4-tBu) = CC(C)(C)c1ccc(C[C@H](N)C(=O)O)cc1; Phe(4-F) = N[C@@H](Cc1ccc(F)cc1)C(=O)O; Igl = N[C@H](C(=O)O)C1Cc2ccccc2C1; R8 = C=CCCCCCC[C@@](C)(N)C(=O)O; Cha = N[C@@H](CC1CCCCC1)C(=O)O; αMeL = CC(C)C[C@](C)(N)C(=O)O; hLeu = CC(C)CC[C@H](N)C(=O)O; S5 = C=CCCC[C@](C)(N)C(=O)O

How the values were obtained:
Bcl-2 = Bcl-2 (Homo sapiens, UniProt P10415); experiment: Ki determination for Bcl-2 (BCL-2 family binding spectrum); conditions: read-out: Ki BCL-2
Bcl-2, sequence (P10415 whole entry, species assumed): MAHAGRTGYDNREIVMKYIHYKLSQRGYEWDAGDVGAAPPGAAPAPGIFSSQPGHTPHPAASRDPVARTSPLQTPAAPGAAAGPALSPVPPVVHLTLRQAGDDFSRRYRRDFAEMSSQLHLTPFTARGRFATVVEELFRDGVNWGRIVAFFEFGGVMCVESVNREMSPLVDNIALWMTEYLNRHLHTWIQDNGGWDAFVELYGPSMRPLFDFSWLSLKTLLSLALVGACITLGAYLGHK
Excerpt: (§1) To assess the binding and affinity of compounds that antagonize the interaction between a peptide and an acceptor protein, a fluorescence polarization assay (FPA) utilizing a fluoresceinated peptidomimetic macrocycle derived from a peptidomimetic precursor sequence is used, for example. The FPA technique measures the molecular orientation and mobility using polarized light and fluorescent tracer. […] A compound that antagonizes the interaction between the fluoresceinated peptidomimetic macrocycle and an acceptor protein will be detected in a competitive binding FPA experiment.
(§2) For example, putative antagonist compounds (1 nM to 1 mM) and a fluoresceinated peptidomimetic macrocycle (25 nM) are incubated with the acceptor protein (50 nM) in binding buffer (140 mM NaCl, 50 mM Tris-HCL, pH 7.4) for 30 minutes at room temperature. Antagonist binding activity is measured, for example, by fluorescence polarization on a luminescence spectrophotometer (e.g. Perkin-Elmer LS50B). Kd values may be determined by nonlinear regression analysis using, for example, Graphpad Prism software (GraphPad Software, Inc., San Diego, Calif.).

Mcl-1 = Mcl-1 (Homo sapiens, UniProt Q07820); experiment: Ki determination for Mcl-1 (BCL-2 family binding spectrum); conditions: read-out: Ki MCL-1
Mcl-1, sequence (Q07820 whole entry, species assumed): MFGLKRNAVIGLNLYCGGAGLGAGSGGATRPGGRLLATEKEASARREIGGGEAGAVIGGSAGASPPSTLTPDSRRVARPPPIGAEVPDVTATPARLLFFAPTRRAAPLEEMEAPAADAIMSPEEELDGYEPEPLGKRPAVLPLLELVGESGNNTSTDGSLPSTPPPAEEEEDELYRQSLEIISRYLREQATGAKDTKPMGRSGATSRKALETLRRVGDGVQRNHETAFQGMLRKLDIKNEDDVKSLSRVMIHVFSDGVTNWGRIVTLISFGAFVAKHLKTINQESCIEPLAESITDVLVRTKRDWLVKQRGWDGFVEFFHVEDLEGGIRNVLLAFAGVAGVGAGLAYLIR
Outline: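 Competitive fluorescence polarization assay in which compounds displace a fluoresceinated peptidomimetic macrocycle tracer from Mcl-1. Affinity constants were obtained by nonlinear regression.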

Bcl-xL = Bcl-xL (Homo sapiens, UniProt Q07817); experiment: Ki determination for Bcl-xL (BCL-2 family binding spectrum); conditions: read-out: Ki BCL-XL
Bcl-xL, sequence (Q07817 whole entry, species assumed): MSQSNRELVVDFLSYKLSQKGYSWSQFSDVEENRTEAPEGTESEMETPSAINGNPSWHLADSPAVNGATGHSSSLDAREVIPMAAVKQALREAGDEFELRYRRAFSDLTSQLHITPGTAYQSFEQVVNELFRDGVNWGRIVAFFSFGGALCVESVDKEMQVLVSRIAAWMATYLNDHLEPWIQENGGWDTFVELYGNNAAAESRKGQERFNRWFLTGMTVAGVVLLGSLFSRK
Excerpt: as §1, §2

SMILES | Ki (Bcl-2) [nM] | Ki (Mcl-1) [nM] | Ki (Bcl-xL) [nM]
CC[C@H](C)[C@H](NC(C)=O)C(=O)N[C@@H](Cc1c[nH]c2ccccc12)C(=O)N[C@H](C(=O)N[C@@H](C)C(=O)N[C@@H](CCC(N)=O)C(=O)N[C@@H](C)C(=O)N[C@@H](CC1CCCCC1)C(=O)N[C@@H](CCCNC(=N)N)C(=O)N[C@]1(C)CCCCCCC=CCCC[C@@](C)(C(=O)N[C@@H](Cc2ccc(O)cc2)C(=O)N[C@@H](Cc2ccc(O)cc2)C(=O)N[C@@H](C)C(N)=O)NC(=O)[C@H](CC(N)=O)NC(=O)[C@H](Cc2ccccc2)NC(=O)[C@H](C)NC(=O)[C@H](CC(=O)O)NC(=O)CNC(=O)[C@H]([C@@H](C)CC)NC1=O)[C@@H](C)CC [compound 1687] (Ac-IWIAQA[Cha]R[R8]IGDAFN[S5]YYA-NH2; staple 9-16) | > 1000 |  | 
CC[C@H](C)[C@H](NC(C)=O)C(=O)N[C@@H](Cc1c[nH]c2ccccc12)C(=O)N[C@H](C(=O)N[C@@H](C)C(=O)N[C@@H](CCC(N)=O)C(=O)N[C@@H](C)C(=O)N[C@H](C(=O)N[C@@H](CCCNC(=N)N)C(=O)N[C@]1(C)CCCCCC/C=C\CCC[C@@](C)(C(=O)N[C@@H](Cc2ccc(O)cc2)C(=O)N[C@@H](Cc2ccc(O)cc2)C(=O)N[C@@H](C)C(N)=O)NC(=O)[C@H](CC(N)=O)NC(=O)[C@H](Cc2ccccc2)NC(=O)[C@H](C)NC(=O)[C@H](CC(=O)O)NC(=O)CNC(=O)[C@H]([C@@H](C)CC)NC1=O)C1Cc2ccccc2C1)[C@@H](C)CC [compound 1693] (Ac-IWIAQA[Igl]R[R8]IGDAFN[S5]YYA-NH2; staple (Z) 9-16) | > 1000 |  | 
CC[C@H](C)[C@H](NC(C)=O)C(=O)N[C@@H](Cc1c[nH]c2ccccc12)C(=O)N[C@@H](Cc1ccc(C(C)(C)C)cc1)C(=O)N[C@@H](C)C(=O)N[C@@H](CCC(N)=O)C(=O)N[C@@H](C)C(=O)N[C@@H](CC(C)C)C(=O)N[C@@H](CCCNC(=N)N)C(=O)N[C@]1(C)CCCCCCC=CCCC[C@@](C)(C(=O)N[C@@H](Cc2ccc(O)cc2)C(=O)N[C@@H](Cc2ccc(O)cc2)C(=O)N[C@@H](C)C(N)=O)NC(=O)[C@H](CC(N)=O)NC(=O)[C@H](Cc2ccccc2)NC(=O)[C@H](C)NC(=O)[C@H](CC(=O)O)NC(=O)CNC(=O)[C@H]([C@@H](C)CC)NC1=O [compound 1684] (Ac-IW[Phe(4-tBu)]AQALR[R8]IGDAFN[S5]YYA-NH2; staple 9-16) | > 1000 |  | 
CC[C@H](C)[C@H](NC(C)=O)C(=O)N[C@@H](Cc1c[nH]c2ccccc12)C(=O)N[C@H](C(=O)N[C@@H](C)C(=O)N[C@@H](C)C(=O)N[C@@H](C)C(=O)N[C@@H](CC(C)C)C(=O)N[C@@H](CCCCN)C(=O)N[C@]1(C)CCCCCCC=CCCC[C@@](C)(C(=O)N[C@@H](Cc2ccc(O)cc2)C(=O)N[C@@H](Cc2ccc(O)cc2)C(=O)N[C@@H](C)C(N)=O)NC(=O)[C@H](CC(N)=O)NC(=O)[C@H](Cc2ccccc2)NC(=O)[C@H](C)NC(=O)[C@H](CC(=O)O)NC(=O)CNC(=O)[C@H]([C@@H](C)CC)NC1=O)[C@@H](C)CC [compound 1737] (Ac-IWIAAALK[R8]IGDAFN[S5]YYA-NH2; staple 9-16) | 25.6 |  | 
CC[C@H](C)[C@H](NC(=O)[C@H](Cc1c[nH]c2ccccc12)NC(=O)[C@](C)(CC(C)C)NC(C)=O)C(=O)N[C@@H](C)C(=O)N[C@@H](CCC(N)=O)C(=O)N[C@@H](C)C(=O)N[C@@H](CC(C)C)C(=O)N[C@@H](CCCNC(=N)N)C(=O)N[C@]1(C)CCCCCCC=CCCC[C@@](C)(C(=O)N[C@@H](Cc2ccc(O)cc2)C(=O)N[C@@H](Cc2ccc(O)cc2)C(=O)N[C@@H](C)C(N)=O)NC(=O)[C@H](CC(N)=O)NC(=O)[C@H](Cc2ccccc2)NC(=O)[C@H](C)NC(=O)[C@H](CC(=O)O)NC(=O)CNC(=O)[C@H]([C@@H](C)CC)NC1=O [compound 1705] (Ac-[αMeL]WIAQALR[R8]IGDAFN[S5]YYA-NH2; staple 9-16) |  | 5.2 | 8.4
CC[C@H](C)[C@H](NC(C)=O)C(=O)N[C@@H](Cc1c[nH]c2ccccc12)C(=O)N[C@H](C(=O)N[C@@H](C)C(=O)N[C@@H](CCC(N)=O)C(=O)N[C@@H](C)C(=O)N[C@@H](C)C(=O)N[C@@H](CCCNC(=N)N)C(=O)N[C@]1(C)CCCCCCC=CCCC[C@@](C)(C(=O)N[C@@H](Cc2ccc(F)cc2)C(=O)N[C@@H](Cc2ccc(F)cc2)C(=O)N[C@@H](C)C(N)=O)NC(=O)[C@H](CC(N)=O)NC(=O)[C@H](Cc2ccccc2)NC(=O)[C@H](C)NC(=O)[C@H](CC(=O)O)NC(=O)CNC(=O)[C@H](CCC(C)C)NC1=O)[C@@H](C)CC [compound 1781] (Ac-IWIAQAAR[R8][hLeu]GDAFN[S5][Phe(4-F)][Phe(4-F)]A-NH2; staple 9-16) |  | > 1000 | > 1000

Further lines, results first:

Ki (Bcl-2) [nM] | Ki (Mcl-1) [nM] | Ki (Bcl-xL) [nM] | SMILES
142 |  |  | CC[C@H](C)[C@H](NC(C)=O)C(=O)N[C@@H](Cc1c[nH]c2ccccc12)C(=O)N[C@H](C(=O)N[C@@H](C)C(=O)N[C@@H](C)C(=O)N[C@@H](C)C(=O)N[C@@H](CC(C)C)C(=O)N[C@@H](CCCNC(=N)N)C(=O)N[C@]1(C)CCCCCCC=CCCC[C@@](C)(C(=O)N[C@@H](Cc2ccc(O)cc2)C(=O)N[C@@H](Cc2ccc(O)cc2)C(=O)N[C@@H](C)C(N)=O)NC(=O)[C@H](CC(N)=O)NC(=O)[C@H](Cc2ccccc2)NC(=O)[C@H](C)NC(=O)[C@H](CCC(=O)O)NC(=O)CNC(=O)[C@H]([C@@H](C)CC)NC1=O)[C@@H](C)CC [compound 1740] (Ac-IWIAAALR[R8]IGEAFN[S5]YYA-NH2; staple 9-16)
142 |  |  | CC[C@H](C)[C@H](NC(C)=O)C(=O)N[C@@H](Cc1c[nH]c2ccccc12)C(=O)N[C@H](C(=O)N[C@@H](C)C(=O)N[C@@H](C)C(=O)N[C@@H](C)C(=O)N[C@@H](CC(C)C)C(=O)N[C@@H](CCCNC(=N)N)C(=O)N[C@]1(C)CCCCCCC=CCCC[C@@](C)(C(=O)N[C@@H](Cc2ccc(O)cc2)C(=O)N[C@@H](Cc2ccc(O)cc2)C(=O)N[C@@H](CCCNC(=N)N)C(N)=O)NC(=O)[C@H](CC(N)=O)NC(=O)[C@H](Cc2ccccc2)NC(=O)[C@H](C)NC(=O)[C@H](CC(=O)O)NC(=O)CNC(=O)[C@H]([C@@H](C)CC)NC1=O)[C@@H](C)CC [compound 1765] (Ac-IWIAAALR[R8]IGDAFN[S5]YYR-NH2; staple 9-16)
125 |  |  | CC[C@H](C)[C@H](NC(C)=O)C(=O)N[C@@H](Cc1c[nH]c2ccccc12)C(=O)N[C@H](C(=O)N[C@@H](C)C(=O)N[C@@H](C)C(=O)N[C@@H](C)C(=O)N[C@@H](CC(C)C)C(=O)N[C@@H](CCCNC(=N)N)C(=O)N[C@]1(C)CCCCCCC=CCCC[C@@](C)(C(=O)N[C@@H](CC(C)C)C(=O)N[C@@H](Cc2ccc(O)cc2)C(=O)N[C@@H](C)C(N)=O)NC(=O)[C@H](CC(N)=O)NC(=O)[C@H](Cc2ccccc2)NC(=O)[C@H](C)NC(=O)[C@H](CC(=O)O)NC(=O)CNC(=O)[C@H]([C@@H](C)CC)NC1=O)[C@@H](C)CC [compound 1753] (Ac-IWIAAALR[R8]IGDAFN[S5]LYA-NH2; staple 9-16)
 | 8 | 36.3 | CC[C@H](C)[C@H](NC(C)=O)C(=O)N[C@@H](Cc1c[nH]c2ccccc12)C(=O)N[C@H](C(=O)N[C@@H](C)C(=O)N[C@@H](C)C(=O)N[C@@H](C)C(=O)N[C@@H](CC(C)C)C(=O)N[C@@H](CCCNC(=N)N)C(=O)N[C@]1(C)CCCCCCC=CCCC[C@@](C)(C(=O)N[C@@H](Cc2ccc(O)cc2)C(=O)N[C@@H](Cc2ccc(O)cc2)C(=O)N[C@@H](C)C(N)=O)NC(=O)[C@H](Cc2c[nH]cn2)NC(=O)[C@H](Cc2ccccc2)NC(=O)[C@H](C)NC(=O)[C@H](CC(=O)O)NC(=O)CNC(=O)[C@H]([C@@H](C)CC)NC1=O)[C@@H](C)CC [compound 1752] (Ac-IWIAAALR[R8]IGDAFH[S5]YYA-NH2; staple 9-16)
120 |  |  | CC[C@H](C)[C@H](NC(C)=O)C(=O)N[C@@H](Cc1c[nH]c2ccccc12)C(=O)N[C@H](C(=O)N[C@@H](C)C(=O)N[C@@H](C)C(=O)N[C@@H](C)C(=O)N[C@@H](CC(C)C)C(=O)N[C@@H](CCCNC(=N)N)C(=O)N[C@]1(C)CCCCCCC=CCCC[C@@](C)(C(=O)N[C@@H](Cc2ccc(O)cc2)C(=O)N[C@@H](Cc2ccc(O)cc2)C(=O)N[C@@H](C)C(N)=O)NC(=O)[C@H](CC(N)=O)NC(=O)[C@H](Cc2ccccc2)NC(=O)[C@H](C)NC(=O)[C@H](CC(=O)O)NC(=O)[C@H](C(C)C)NC(=O)[C@H]([C@@H](C)CC)NC1=O)[C@@H](C)CC [compound 1739] (Ac-IWIAAALR[R8]IVDAFN[S5]YYA-NH2; staple 9-16)
 | 21.2 | 154 | CC[C@H](C)[C@H](NC(C)=O)C(=O)N[C@@H](Cc1c[nH]c2ccccc12)C(=O)N[C@H](C(=O)N[C@@H](C)C(=O)N[C@@H](CCC(N)=O)C(=O)N[C@@H](C)C(=O)N[C@@H](CC(C)C)C(=O)N[C@@H](CCCNC(=N)N)C(=O)N[C@]1(C)CCCCCCC=CCCC[C@@](C)(C(=O)N[C@@H](Cc2ccc(O)cc2)C(=O)N[C@@H](Cc2ccc(O)cc2)C(=O)N[C@@H](C)C(N)=O)NC(=O)[C@H](CC(N)=O)NC(=O)[C@H](Cc2ccc(C(C)(C)C)cc2)NC(=O)[C@H](C)NC(=O)[C@H](CC(=O)O)NC(=O)CNC(=O)[C@H]([C@@H](C)CC)NC1=O)[C@@H](C)CC [compound 1745] (Ac-IWIAQALR[R8]IGDA[Phe(4-tBu)]N[S5]YYA-NH2; staple 9-16)
